According to ChEMBL document CHEMBL1201862, “PubChem BioAssay data set” (2004):
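Method: 48-hour compound exposure of cells in 96-well plates, five concentrations, linear interpolation of endpoints. Here, GI50 denotes the concentration required for 50% inhibition of growth.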 The source made the active and inactive calls. Rule as the data show it: active = GI50 up to about 1.1 µM and inactive = higher.

How the values were obtained:
Assay in all cases: NCI anticancer screen, dose series, 48 h
[1] = tested on: 786-0
[2] = tested on: A549
[3] = tested on: ACHN
[4] = tested on: BT-549
[5] = tested on: CAKI-1
[6] = tested on: CCRF-CEM
[7] = tested on: COLO 205
[8] = tested on: DU-145
[9] = tested on: EKVX
[10] = tested on: HCC 2998
[11] = tested on: HCT-116
[12] = tested on: HCT-15
[13] = tested on: HL-60
[14] = tested on: HOP-62
[15] = tested on: HOP-92
[16] = tested on: HT-29
[17] = tested on: Hs-578T
[18] = tested on: K562
[19] = tested on: KM12
[20] = tested on: LOX IMVI
[21] = tested on: M14
[22] = tested on: MCF7
[23] = tested on: MDA-MB-231
[24] = tested on: MDA-MB-435
[25] = tested on: MDA-N
[26] = tested on: NCI-H23
[27] = tested on: NCI-H460
[28] = tested on: NCI-H522
[29] = tested on: NCI/ADR-RES
[30] = tested on: OVCAR-3
[31] = tested on: OVCAR-5
[32] = tested on: OVCAR-8
[33] = tested on: PC-3
[34] = tested on: RPMI-8226
[35] = tested on: RXF 393
[36] = tested on: SF-268
[37] = tested on: SF-295
[38] = tested on: SF-539
[39] = tested on: SK-MEL-28
[40] = tested on: SK-MEL-5
[41] = tested on: SK-OV-3
[42] = tested on: SN12C
[43] = tested on: SNB-19
[44] = tested on: SNB-75
[45] = tested on: SR
[46] = tested on: SW-620
[47] = tested on: T47D
[48] = tested on: TK-10
[49] = tested on: U-251
[50] = tested on: UACC-257
[51] = tested on: UACC-62
[52] = tested on: UO-31
[53] = tested on: IGROV-1
[54] = tested on: MOLT-4
[55] = tested on: Malme-3M
[56] = tested on: NCI-H226
[57] = tested on: OVCAR-4
[58] = tested on: SK-MEL-2

Measured: GI50

Cc1cc(Cl)ccc1NC(=O)/C(Cl)=C(/Cl)C(=O)O
18.7 µM: [12]
inactive: [1] 23.1 µM | [2] 48.8 µM | [3] 19.3 µM | [4] 19.1 µM | [5] 18.3 µM | [6] 17.3 µM | [7] 28.4 µM | [8] 23.9 µM | [9] 19.1 µM | [10] 17.9 µM | [11] 19 µM | [13] 25.7 µM | [14] 22.2 µM | [15] 22.1 µM | [16] 22.9 µM | [17] 26.4 µM | [18] 31.8 µM | [19] 31 µM | [20] 19.9 µM | [21] 28.4 µM | [22] 21.4 µM | [23] 21.7 µM | [24] 20.6 µM | [25] 24.1 µM | [26] 29.3 µM | [27] > 100 µM | [28] 15.4 µM | [29] 29 µM | [30] 18.4 µM | [31] 19.5 µM | [32] 17.7 µM | [33] 21.4 µM | [34] 24 µM | [35] 19.6 µM | [36] 52.8 µM | [37] > 100 µM | [38] 23 µM | [39] 22.1 µM | [40] 50.7 µM | [41] > 100 µM | [42] 18.1 µM | [43] > 100 µM | [44] 29.9 µM | [45] 15.1 µM | [46] 21 µM | [47] 22.8 µM | [48] 17.5 µM | [49] 19 µM | [50] 19.7 µM | [51] 21.5 µM | [52] > 100 µM

CCN(CC)c1ccc2cc(C(=O)Nc3ccccc3)c(=N)oc2c1
> 100 µM: [12]
inactive: [1] > 100 µM | [2] > 100 µM | [3] > 100 µM | [4] > 100 µM | [5] > 100 µM | [6] > 100 µM | [7] > 100 µM | [8] > 100 µM | [9] > 100 µM | [10] > 100 µM | [11] > 100 µM | [13] > 100 µM | [14] > 100 µM | [15] > 100 µM | [16] > 100 µM | [17] > 100 µM | [53] > 100 µM | [18] > 100 µM | [19] > 100 µM | [20] > 100 µM | [21] > 100 µM | [22] > 100 µM | [23] > 100 µM | [24] > 100 µM | [25] > 100 µM | [54] > 100 µM | [55] > 100 µM | [56] > 100 µM | [27] > 100 µM | [29] > 100 µM | [57] > 100 µM | [31] > 100 µM | [32] > 100 µM | [33] > 100 µM | [34] > 100 µM | [35] > 100 µM | [36] > 100 µM | [37] > 100 µM | [38] > 100 µM | [39] > 100 µM | [58] > 100 µM | [40] > 100 µM | [41] > 100 µM | [42] > 100 µM | [43] > 100 µM | [44] > 100 µM | [45] > 100 µM | [46] > 100 µM | [47] > 100 µM | [48] > 100 µM | [49] > 100 µM | [50] > 100 µM | [51] > 100 µM | [52] > 100 µM
